9 compounds from patent US4866084A, “Topsentin compounds effective against viruses and certain tumors” (Harbor Branch Oceanographic Institution, Inc., priority 1988, dated 1989) can be followed below.

In brackets after ≈: the same amount, converted by molar mass. Where two headings read alike, the source gives them in different places.

Data set [1] has as its system Herpes simplex virus type 1 (HSV-1). The data set can be described thus: Antiviral disc assay for HSV-1 (Table 3). The class given is cell-based, Herpes simplex type 1 (HSV-1). As to the method: (§1) a. Herpes simplex type 1 (HSV-1) replicates in the CV-1 cell line. CV-1 is a fibroblast-like cell culture derived from primary African green monkey cells.
(§2) a. Dilute the cells with EMEM to 4×10^5 cells/ml.
(§3) b. See 24-well trays with 0.5 ml per well. Cell concentration is […] cells.
(§4) c. Incubate at 37 C. for 1.5 hours.
(§5) d. The wells can be used over the next several days beginning the day after seeding (preferably 2, 3, or 4).
(§6) a. Remove medium from wells.
(§7) b. Infect well with at least 25 and no more than 80 plaque forming units (PFU) of virus.
(§8) c. Incubate infected cells at 37 C. for 1.5 hrs.
(§9) d. Pour off supernatant at end of incubation period.
(§10) e. Add 0.5 ml of methylcellulose overlay medium (MCO). MCO is a maintenance medium without phenol red made with 1% 4000 centipose methylcellulose. FBS is used at 5% level.
(§11) a. For drug evaluation wet filter paper discs (6 mm dia.) with approx. 0.02 ml of test compound. Allow solvent to evaporate for 20-30 mins. at ambient temperature, then place discs in the well containing CV-1 cells, virus and MCO.
(§12) b. Incubate tissue culture plates for 48 hrs. at 37 C.
(§13) c. After 48 hrs. place 0.5 ml NRMCO on each well. (NRMCO is a maintenance overlay medium without phenol red containing 0.1 mg neutral red dye/ml and 2% 15 Cps. methylcellulose.
(§14) d. Incubate plates at 37 C. and read the following day. Antiviral activity should be observed from two parameters. One is actual reduction in the number of plaques and two is the diminution in plaque diameter.
(§15) a. Antiviral activity (AVA) is scored from 0 to +++.
(§16) +++=complete inhibiton of plaque formation

Data set [2] relates to P388 murine leukemia cells. The data set can be described thus: P388 in vitro antitumor screen (MTT, 48 h). The class given is cell-based. The protocol:
Cell Culture. P388 murine leukemia cells, obtained from the National Cancer Institute, Bethesda, MD, were maintained at 37° C. in 5% CO2 in humidified air. Growth medium was Roswell Park Memorial Institute medium 1640 supplemented with 10% heat-inactivated horse serum. Stock cultures of P388 cells were grown in antibiotic-free growth medium and were subcultured (10^5 cells/ml, 25 ml cultures in T-25 plastic tissue culture flasks) every 2-3 days. […] An appropriate volume of the dilution was transferred to duplicate wells in a 96-well plate, evaporated to dryness, and 200 μl of growth medium containing cells at a density of 1×10^5 cells/ml was added per well. […] For daily quality control, each technician determines the IC50 of fluorouracil for inhibition of P388 cell proliferation. After 48-hour incubations, cell number was determined with the MTT assay (below), calculated as a percent of untreated cell growth, converted to percent inhibition, and reported to the chemist requesting the screen.
Determination of IC50 Values. The initial determination of an IC50 value for inhibition of P388 cell proliferation with a crude, semipure, or pure sample was made by diluting the sample in methanol to the appropriate concentration and then serial 1:1 dilutions were made in duplicate in a 96-well plate, such that the final concentrations in the assay were […] μg/ml. After solvent was evaporated to dryness, cells were added to each well as described above. After 48-hour incubations, cell numbers were determined with the MTT assay, converted to percent control, plotted versus the log of the sample concentration. Curves were fitted by least-squares linear regression of logit-transformed data and the concentration of sample that inhibited cell proliferation by 50% was reported to the chemist requesting the screen.
MTT Assay for Cell Number. MTT or 3-(4,5-Dimethylthiazol-2-yl)-2,5-diphenyl-tetrazolium bromide is used in an established method (J. Immunol. Methods, 1983, 65: 55-63) to enumerate cells rather than "Coulter counting".

Data set [3] relates to A549 human lung carcinoma cells. Nature of the data set: Human tumor cell line assay, A549. The class given is cell-based. The conditions noted are these: 120 h, read-out: A549: cell density compared with control growth; for activity at 500 fg/mL: 0.5 pg/ml. As to the method: (§17) HCT-8 human colon tumor cells are grown in RPM1 1640 medium (GIBCO). A549 human lung carcinoma cells and T47D human breast carcinoma cells are cultured in Dulbecco medium (Biologos, Inc.). All media are supplemented with 10% fetal bovine serum and contain 50 μg/ml gentamicin. All human tumor cell lines are incubated in 5% CO2 at 37° C. and subcultured once a week.
(§18) 2. Incubate in a CO2 -incubator for 48 hours.
(§19) 3. Add compound to each well and incubate for an additional 120 hours.
(§20) 4. Discard medium and stain with methylene blue (HCT-8) or crystal violet (A549 & T47D).
(§21) 5. Compare density of drug-treated well with that of the control (no drug added) as follows: ND (not detectable) >90%, 1+=75-90%, 2+=50-74%, 3+=25-49%, 4+=<25% of control growth.
(§22) Final conc. of Vinblastine or Vincristine control (use 2 μl/assay).
(§23) For solvents other than water, allow solvent to evaporate from tube or well in hood. Always run a solvent control in duplicate in the last two wells of each plate or four tubes for each rack of 72 or fewer tubes. Also run four wells or tubes with media and cells only per run of plates or tubes. When using volumes of aqueous solutions greater than 200 ml, dry sample and bring to desired concentration in media.

Data set [4] deals with HSV-1. Nature of the data set: HSV-1 antiviral activity assay (Table 4). Type of data set: cell-based, Herpes simplex type 1 (HSV-1). More on the design: key to the marks not given beside the values. The protocol: as §1, §2, §3, §4, §5, §6, §7, §8, §9, §10, §11, §12, §13, §14, §15, §16
Data set [5] deals with T47D human breast carcinoma cells. The data set can be described thus: Human tumor cell line assay, T47D. The class given is cell-based. The conditions noted are these: 120 h, read-out: T47D: cell density compared with control growth. As to the method:
as §17, §18, §19, §20, §21, §22, §23

Data set [6] is described as follows: Biological activities of synthesized versus natural topsentin.
Data set [7] deals with CV-1 cells. Nature of the data set: Cytotoxicity in antiviral disc assay (Table 3). Type of data set: cell-based, African green monkey. Further details: key: 0 = no cytotoxicity, 16 = complete cell destruction. As to the method: (§24) a. Herpes simplex type 1 (HSV-1) replicates in the CV-1 cell line. CV-1 is a fibroblast-like cell culture derived from primary African green monkey cells. a. For drug evaluation wet filter paper discs (6 mm dia.) with approx. 0.02 ml of test compound. Allow solvent to evaporate for 20-30 mins. at ambient temperature, then place discs in the well containing CV-1 cells, virus and MCO. b. Incubate tissue culture plates for 48 hrs. at 37 C. c. After 48 hrs. place 0.5 ml NRMCO on each well. (NRMCO is a maintenance overlay medium without phenol red containing 0.1 mg neutral red dye/ml and 2% 15 Cps. methylcellulose. b. Cytotoxicity (Cyt) 0=no visual or microscopic cytotoxicity 16=complete cell destruction 8, 10, 12, 14=partial cytotoxicity.

In data set [8] the test system is P388 leukemia. Type of data set: in vivo, BDF1 mice. The following applies: days 1-5, mice. The protocol: P388 leukemia obtained from DBA/2 mice was inoculated ip into BDF1 mice. The inoculum level was 10^6 cells in 0.1 ml. Mice were randomized on day 1 into groups of six mice since bacteriological check of tumor was negative. Test materials were dissolved or suspended in sterile 0.98% NaCl solution with the aid of absolute ethanol and "Tween-80", then administered ip, qD1-5, in a volume of 0.5 ml/mouse. Mice were weighed on days 1 & 5 to provide evidence of toxicity and deaths were recorded daily. Each test included appropriate numbers of untested control mice, one-dose level of the positive reference compound 5-fluorouracil and test material (four dose levels each). Test material were prepared fresh on day 1 and administered daily for five days. Quantity and consistency of test material precluded fresh preparation daily. Doses were derived from prior single treatment acute toxicity assays. The endpoints for therapeutic evaluation were mean and median survival time and long-term survivors on day 30. A 25% percent increase in life span (%ILS) was considered evidence of significant activity.

Data set [9] has as its system CV-1 cells. The data set can be described thus: Cytotoxicity in antiviral assay (Table 4). The class given is cell-based, African green monkey. More on the design: key: 0 = no cytotoxicity, 16 = complete cell destruction. The protocol: as §24
[10] abbreviates: Mus musculus, P388 murine leukemia cells, 48 h, MTT.

One may read the IC50 as the point on the concentration scale where inhibition reaches its midpoint. In the case of `O=C(c1nc(-c2c[nH]c3ccccc23)c[nH]1)c1c[nH]c2cc(O)ccc12` [Compound 1, Topsentin], the AVA entry was “+” in data set [1] (Table 3, 50 ug/disk); “++” in data set [1] (Table 3, 200 ug/disk); “+++” in [4] (Table 4, 2 μg/disk); “+++” in data set [4] (Table 4, 20 μg/disk). For the same compound, half-maximal inhibition in data set [2] (setting [10]) (IC50) required 2 µg/mL (≈ 5.84 µM). Further, the activity at 500 fg/mL in [3] and in [5] was greater than 90% in each case. The activity at 50 pg/mL in data set [3] and in data set [5] was less than 25% throughout. Moreover, in data set [5], the activity at 5 pg/mL was 50 to 74%. In addition, the activity at 20 pg/mL in data set [5] was less than 25%. Also, the “biological activities compared with natural topsentin” value in data set [6] was “identical with natural topsentin in spectral data and in biological activities”. Besides, the CYT. in data set [7] (Table 3, 20 ug/disk) is recorded as 0; in [7] (Table 3, 50 ug/disk) it was 0; in data set [7] (Table 3, 200 ug/disk), 0; in [9] (Table 4, 0.2 μg/disk) it was 0; in [9] (Table 4, 2 μg/disk) it was 0; in data set [9] (Table 4, 20 μg/disk), 0. In addition, the “Survival % T/C” value was 111% in data set [8] (37.5 mg/kg ip), 116% in data set [8] (75 mg/kg ip), 132% in [8] (150 mg/kg ip) and 110% in data set [8] (300 mg/kg ip).
For the compound `O=C(c1nc(-c2c[nH]c3cc(Br)ccc23)c[nH]1)c1c[nH]c2cc(O)ccc12` [Compound 2, Bromotopsentin], the AVA entry in data set [1] (Table 3, 200 ug/disk) is “++”; in data set [4] (Table 4, 10 μg/disk) it was “++”. In data set [2] (setting [10]), this compound showed an IC50 of 7 µg/mL (≈ 16.6 µM). The activity at 500 fg/mL in data set [3] and in [5] was greater than 90% throughout. In addition, the activity at 5 pg/mL in data set [3] (5 pg/ml) was greater than 90%; in data set [5], 50 to 74%. Moreover, the activity at 50 pg/mL in data set [3] and in [5] was less than 25% in each case. The activity at 20 pg/mL in data set [5] was in the range of 25 to 49%. Further, the CYT. in [7] (Table 3, 50 ug/disk) came out at 0; in [7] (Table 3, 200 ug/disk) it was 0; in data set [9] (Table 4, 5 μg/disk), 0; in data set [9] (Table 4, 10 μg/disk), 0. Moreover, the “Survival % T/C” value was 105% in data set [8] (37.5 mg/kg ip), 111% in data set [8] (75 mg/kg ip) and 116% in data set [8] (150 mg/kg ip).
`O=C(C1=NC(c2c[nH]c3ccccc23)CN1)c1c[nH]c2cc(Br)ccc12` (stereo not drawn) [Compound 3, 4,5-dihydro-6"-deoxybromotopsentin]: in data set [2] (P388 murine leukemia cells, 48 h, MTT), the “P388 IC50” value worked out at 4.0 µg/mL. The AVA result in data set [4] (Table 4, 20 μg/disk) is “+++”.
In data set [2] (setting [10]), `O=C(c1nc(-c2c[nH]c3cc(O)ccc23)c[nH]1)c1c[nH]c2ccccc12` [Compound 4, Isotopsentin] had an IC50 of 4 µg/mL (≈ 11.7 µM). Moreover, the AVA result in [4] (Table 4, 20 μg/disk) was “+++”. Besides, the CYT. was determined as 0 in data set [9] (Table 4, 2 μg/disk) and 0 in [9] (Table 4, 20 μg/disk).
With `O=C(c1nc(-c2c[nH]c3cc(O)ccc23)c[nH]1)c1c[nH]c2cc(O)ccc12` [Compound 5, Hydroxytopsentin], the IC50 in data set [2] (setting [10]) stood at 0.3 µg/mL (≈ 0.837 µM). The AVA result in data set [4] (Table 4, 20 μg/disk) is on record as “++”. For the same compound, the CYT. in [7] (Table 3, 20 ug/disk) is reported as 0; in data set [9] (Table 4, 2 μg/disk), 0; in data set [9] (Table 4, 20 μg/disk), 0.
`O=C(c1nc(-c2c[nH]c3ccccc23)c[nH]1)c1c[nH]c2ccc(O)cc12` [Compound 7, Neotopsentin] had an IC50 in data set [2] (setting [10]) of 2.5 µg/mL (≈ 7.3 µM). For the same compound, the CYT. is 0 in [7] (Table 3, 20 ug/disk) and 0 in data set [9] (Table 4, 20 μg/disk).
`O=C(c1nc(-c2c[nH]c3ccc(O)cc23)c[nH]1)c1c[nH]c2ccccc12` [Compound 8, Neoisotopsentin] came in with an IC50 in [2] (setting [10]) of 1.8 µg/mL (≈ 5.26 µM). Besides, the CYT. in [7] (Table 3, 20 ug/disk) came to 0; in data set [9] (Table 4, 20 μg/disk), 0.
Take `O=C(c1nc(-c2c[nH]c3ccc(O)cc23)c[nH]1)c1c[nH]c2ccc(O)cc12` [Compound 9, Neohydroxytopsentin]: the IC50 in data set [2] (setting [10]) is greater than 20 µg/mL. In addition, the CYT. in [7] (Table 3, 20 ug/disk) turned out to be 0; in data set [9] (Table 4, 20 μg/disk), 0.
In general, inhibition refers to the relative decrease from the control value, in per cent. Take `O=c1[nH]cc(F)c(=O)[nH]1` [fluorouracil, 5-fluorouracil, reference compound]: the inhibition at 0.2 µg/mL in data set [2] (Mus musculus, P388, read-out: inhibition of cell replication) is roughly 95%.
